Measurements taken from patent publication US20210045385A1, “PYRIDAZINONE-SUBSTITUTED KETOXIMES AS HERBICIDES” (FMC Corporation, priority 2018, published 2021).

Key:
Format in all cases: in vivo
[1] = system: Italian ryegrass (Lolium mutiflorum); test: Test C preemergence, visual plant response rating; settings: Test C, 0 is no effect, 100 is complete control
Method in brief: (§1)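 Visual injury on a 0 (no effect) to 100 (complete control) scale versus untreated controls, scored approximately 10 d after treatment under greenhouse conditions. Treatments used surfactant-containing non-phytotoxic solvent formulations, sprayed onto loam–sand soil preemergence or onto one- to two-leaf plants 2–10 cm tall postemergence.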

[2] = system: barnyardgrass (Echinochloa crus-galli); test: Test C preemergence, visual plant response rating; settings: Test C, 0 is no effect, 100 is complete control
Method in brief: as §1

[3] = system: foxtail, giant (giant foxtail, Setaria faberi); test: Test C preemergence, visual plant response rating; settings: Test C, 0 is no effect, 100 is complete control
Method in brief: as §1

[4] = system: kochia (Bassia scoparia); test: Test C preemergence, visual plant response rating; settings: Test C, 0 is no effect, 100 is complete control
Method in brief: as §1

[5] = system: pigweed (Amaranthus retroflexus); test: Test C preemergence, visual plant response rating; settings: Test C, 0 is no effect, 100 is complete control
Method in brief: as §1

[6] = system: ragweed (common ragweed, Ambrosia artemisiifolia); test: Test C preemergence, visual plant response rating; settings: Test C, 0 is no effect, 100 is complete control
Method in brief: as §1

[7] = system: Italian ryegrass (Lolium mutiflorum); test: Test C postemergence, visual plant response rating
Method in brief: as §1

[8] = system: barnyardgrass (Echinochloa crus-galli); test: Test C postemergence, visual plant response rating
Method in brief: as §1

[9] = system: blackgrass (Alopecurus myosuroides); test: Test C postemergence, visual plant response rating
Method in brief: as §1

[10] = system: corn (Zea mays); test: Test C postemergence, visual plant response rating
Method in brief: as §1

[11] = system: foxtail, giant (giant foxtail, Setaria faberi); test: Test C postemergence, visual plant response rating
Method in brief: as §1

[12] = system: galium (catchweed bedstraw, Galium aparine); test: Test C postemergence, visual plant response rating
Method in brief: as §1

[13] = system: kochia (Bassia scoparia); test: Test C postemergence, visual plant response rating
Method in brief: as §1

[14] = system: pigweed (Amaranthus retroflexus); test: Test C postemergence, visual plant response rating
Method in brief: as §1

[15] = system: ragweed (common ragweed, Ambrosia artemisiifolia); test: Test C postemergence, visual plant response rating
Method in brief: as §1

[16] = system: wheat (Triticum aestivum); test: Test C postemergence, visual plant response rating
Method in brief: as §1

[17] = system: barnyardgrass (Echinochloa crus-galli); test: Test D flooded paddy test, visual plant response rating; settings: 250 g ai/ha, scale 0 to 100 (0 no effect, 100 complete control), 13 to 15 d
Method in brief: (§2)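 Visual injury scores, 0 (no effect) to 100 (complete control), were assigned after 13 to 15 d in the greenhouse by comparison with controls. Test compounds had been added to paddy water covering soil by 3 cm at the 2-leaf stage.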

[18] = system: duck salad (Heteranthera limosa); test: as above; settings: 250 g ai/ha, scale 0 to 100 (0 no effect, 100 complete control), 13 to 15 d
Method in brief: as §2

[19] = system: rice (Oryza sativa); test: as above; settings: 250 g ai/ha, scale 0 to 100 (0 no effect, 100 complete control), 13 to 15 d
Method in brief: as §2

[20] = system: sedge umbrella (small-flower umbrella sedge, Cyperus difformis); test: as above; settings: 250 g ai/ha, scale 0 to 100 (0 no effect, 100 complete control), 13 to 15 d
Method in brief: as §2

[21] = Test C, postemergence, 125 g ai/ha

| SMILES | Ryegrass, Italian plant response rating (0 to 100 scale) ([1]; 31 g ai/ha) | Ryegrass, Italian plant response rating (0 to 100 scale) ([1]; 125 g ai/ha) | Barnyardgrass plant response rating (0 to 100 scale) ([2]; 31 g ai/ha) | Barnyardgrass plant response rating (0 to 100 scale) ([2]; 125 g ai/ha) | Foxtail, Giant plant response rating (0 to 100 scale) ([3]; 31 g ai/ha) | Foxtail, Giant plant response rating (0 to 100 scale) ([3]; 125 g ai/ha) | Kochia plant response rating (0 to 100 scale) ([4]; 31 g ai/ha) | Kochia plant response rating (0 to 100 scale) ([4]; 125 g ai/ha) | Pigweed plant response rating (0 to 100 scale) ([5]; 31 g ai/ha) | Pigweed plant response rating (0 to 100 scale) ([5]; 125 g ai/ha) | Ragweed plant response rating (0 to 100 scale) ([6]; 31 g ai/ha) | Ragweed plant response rating (0 to 100 scale) ([6]; 125 g ai/ha) | Ryegrass, Italian plant response rating (0 to 100 scale) ([7]; Postemergence, 31 g ai/ha) | Ryegrass, Italian plant response rating (0 to 100 scale) [7, 21] | Barnyardgrass plant response rating (0 to 100 scale) ([8]; Postemergence, 31 g ai/ha) | Barnyardgrass plant response rating (0 to 100 scale) [8, 21] | Blackgrass plant response rating (0 to 100 scale) ([9]; Postemergence, 31 g ai/ha) | Blackgrass plant response rating (0 to 100 scale) [9, 21] | Corn plant response rating (0 to 100 scale) ([10]; Postemergence, 31 g ai/ha) | Corn plant response rating (0 to 100 scale) [10, 21] | further results |
| --- | --- | --- | --- | --- | --- | --- | --- | --- | --- | --- | --- | --- | --- | --- | --- | --- | --- | --- | --- | --- | --- |
| CO/N=C(/c1cccc(/C=C\Cl)c1)c1c(O)c(C)nn(C)c1=O [Compound 287] | 50 | 90 | 40 | 90 | 10 | 40 | 0 | 0 | 0 | 0 | 0 | 20 | 20 | 80 | 0 | 60 | 10 | 30 | 0 | 10 | Foxtail, Giant plant response rating (0 to 100 scale) ([11]; Postemergence, 31 g ai/ha): 10; Foxtail, Giant plant response rating (0 to 100 scale) [11, 21]: 70; Galium plant response rating (0 to 100 scale) ([12]; Postemergence, 31 g ai/ha): 50; Galium plant response rating (0 to 100 scale) [12, 21]: 70; Kochia plant response rating (0 to 100 scale) ([13]; Postemergence, 31 g ai/ha): 0; Kochia plant response rating (0 to 100 scale) [13, 21]: 10; Pigweed plant response rating (0 to 100 scale) ([14]; Postemergence, 31 g ai/ha): 10; Pigweed plant response rating (0 to 100 scale) [14, 21]: 20; Ragweed plant response rating (0 to 100 scale) ([15]; Postemergence, 31 g ai/ha): 20; Ragweed plant response rating (0 to 100 scale) [15, 21]: 50; Wheat plant response rating (0 to 100 scale) ([16]; Postemergence, 31 g ai/ha): 0; Wheat plant response rating (0 to 100 scale) [16, 21]: 0; Plant response rating, Barnyardgrass (Flood) [17]: 0; Plant response rating, Ducksalad (Flood) [18]: 0; Plant response rating, Rice (Flood) [19]: 0; Plant response rating, Sedge, Umbrella (Flood) [20]: 0 |
| CO/N=C(\c1cccc(/C=C\Cl)c1)c1c(O)c(C)nn(C)c1=O [Compound 288] | 70 | 100 | 70 | 100 | 40 | 100 | 0 | 30 | 0 | 0 | 10 | 20 | 40 | 100 | 70 | 100 | 40 | 40 | 10 | 20 | Foxtail, Giant plant response rating (0 to 100 scale) ([11]; Postemergence, 31 g ai/ha): 80; Foxtail, Giant plant response rating (0 to 100 scale) [11, 21]: 90; Galium plant response rating (0 to 100 scale) ([12]; Postemergence, 31 g ai/ha): 60; Galium plant response rating (0 to 100 scale) [12, 21]: 80; Kochia plant response rating (0 to 100 scale) ([13]; Postemergence, 31 g ai/ha): 10; Kochia plant response rating (0 to 100 scale) [13, 21]: 30; Pigweed plant response rating (0 to 100 scale) ([14]; Postemergence, 31 g ai/ha): 0; Pigweed plant response rating (0 to 100 scale) [14, 21]: 30; Ragweed plant response rating (0 to 100 scale) ([15]; Postemergence, 31 g ai/ha): 30; Ragweed plant response rating (0 to 100 scale) [15, 21]: 60; Wheat plant response rating (0 to 100 scale) ([16]; Postemergence, 31 g ai/ha): 0; Wheat plant response rating (0 to 100 scale) [16, 21]: 0; Plant response rating, Barnyardgrass (Flood) [17]: 0; Plant response rating, Ducksalad (Flood) [18]: 0; Plant response rating, Rice (Flood) [19]: 0; Plant response rating, Sedge, Umbrella (Flood) [20]: 0 |
| CO/N=C(/c1cc(Cl)c(F)c(Cl)c1)c1c(O)c(C)nn(C)c1=O [Compound 289] | 0 | 30 | 0 | 0 | 0 | 10 | 0 | 0 | 0 | 40 | 0 | 30 | 0 | 60 | 0 | 10 | 0 | 0 | 0 | 0 | Foxtail, Giant plant response rating (0 to 100 scale) ([11]; Postemergence, 31 g ai/ha): 0; Foxtail, Giant plant response rating (0 to 100 scale) [11, 21]: 0; Galium plant response rating (0 to 100 scale) ([12]; Postemergence, 31 g ai/ha): 70; Galium plant response rating (0 to 100 scale) [12, 21]: 100; Kochia plant response rating (0 to 100 scale) ([13]; Postemergence, 31 g ai/ha): 20; Kochia plant response rating (0 to 100 scale) [13, 21]: 40; Pigweed plant response rating (0 to 100 scale) ([14]; Postemergence, 31 g ai/ha): 0; Pigweed plant response rating (0 to 100 scale) [14, 21]: 0; Ragweed plant response rating (0 to 100 scale) ([15]; Postemergence, 31 g ai/ha): 40; Ragweed plant response rating (0 to 100 scale) [15, 21]: 90; Wheat plant response rating (0 to 100 scale) ([16]; Postemergence, 31 g ai/ha): 0; Wheat plant response rating (0 to 100 scale) [16, 21]: 0; Plant response rating, Barnyardgrass (Flood) [17]: 0; Plant response rating, Ducksalad (Flood) [18]: 0; Plant response rating, Rice (Flood) [19]: 0; Plant response rating, Sedge, Umbrella (Flood) [20]: 0 |
| CO/N=C(\c1cc(Cl)c(F)c(Cl)c1)c1c(O)c(C)nn(C)c1=O [Compound 290] | 0 | 40 | 0 | 0 | 0 | 20 | 0 | 0 | 10 | 30 | 20 | 90 | 0 | 60 | 0 | 20 | 0 | 0 | 0 | 0 | Foxtail, Giant plant response rating (0 to 100 scale) ([11]; Postemergence, 31 g ai/ha): 0; Foxtail, Giant plant response rating (0 to 100 scale) [11, 21]: 0; Galium plant response rating (0 to 100 scale) ([12]; Postemergence, 31 g ai/ha): 70; Galium plant response rating (0 to 100 scale) [12, 21]: 100; Kochia plant response rating (0 to 100 scale) ([13]; Postemergence, 31 g ai/ha): 0; Kochia plant response rating (0 to 100 scale) [13, 21]: 20; Pigweed plant response rating (0 to 100 scale) ([14]; Postemergence, 31 g ai/ha): 0; Pigweed plant response rating (0 to 100 scale) [14, 21]: 0; Ragweed plant response rating (0 to 100 scale) ([15]; Postemergence, 31 g ai/ha): 20; Ragweed plant response rating (0 to 100 scale) [15, 21]: 50; Wheat plant response rating (0 to 100 scale) ([16]; Postemergence, 31 g ai/ha): 0; Wheat plant response rating (0 to 100 scale) [16, 21]: 0; Plant response rating, Barnyardgrass (Flood) [17]: 0; Plant response rating, Ducksalad (Flood) [18]: 0; Plant response rating, Rice (Flood) [19]: 0; Plant response rating, Sedge, Umbrella (Flood) [20]: 0 |
